This is an account of results in ChEMBL document CHEMBL1201862, “PubChem BioAssay data set” (2004).

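Tested at 5 concentrations; 48 h exposure; 96-well plates; endpoints linearly interpolated, else capped at highest concentration. GI50 marks 50% less growth.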 Active and inactive are the calls of the source. Cut-off read from the data, not from the text of the source: active = GI50 up to about 1.1 µM and inactive = higher. Bounds are passed on as bounds.

Among the test systems are A549; SN12C; IGROV-1; SK-MEL-2; M14; NCI/ADR-RES; OVCAR-5; SNB-75; KM12; HT-29; MDA-MB-435; SNB-19; U-251; NCI-H23; A498; LOX IMVI; ACHN; CAKI-1; Malme-3M; CCRF-CEM.
Assay in all cases: growth of human tumour cells (NCI), 48 h

In the case of `C[C@H](C1CC2(C)OC2(C)C(=O)O1)[C@H]1CC[C@H]2[C@@H]3[C@@H]4O[C@@H]4[C@@]4(O)CC=CC(=O)[C@]4(C)[C@H]3CC[C@]12C` (stereo not given in full), the GI50 in the assay with A549, in the assay with SN12C, in the assay with IGROV-1, in the assay with SK-MEL-2, in the assay on M14 and in the assay on NCI/ADR-RES was > 50 µM (inactive) throughout. For the same molecule, the GI50 in the assay with OVCAR-5 was > 50 µM (inactive); with SNB-75 it was 8.18 µM (inactive); in the assay with KM12 it was > 50 µM (inactive); in the assay on HT-29, > 50 µM (inactive); with MDA-MB-435 it was > 50 µM (inactive); in the assay on SNB-19 it was 29.6 µM (inactive). In addition, the GI50 in the assay on U-251, in the assay on NCI-H23, with A498, in the assay with LOX IMVI, in the assay on ACHN and in the assay with CAKI-1 was > 50 µM (inactive) throughout.
Consider `CC(C)(CC(O)C#N)/[N+]([O-])=[N+](\[O-])C(C)(C)CC(O)C#N` (stereo not given), for which the GI50 in the assay with A549 was 57.4 µM (inactive); in the assay with SN12C it was 19.3 µM (inactive); in the assay with IGROV-1 it was 21.2 µM (inactive); with SK-MEL-2, 43 µM (inactive); in the assay on M14, 16 µM (inactive); with Malme-3M, 21.6 µM (inactive). Moreover, the GI50 in the assay on NCI/ADR-RES was 38.2 µM (inactive); in the assay with OVCAR-5, 23.5 µM (inactive); with SNB-75, 23.7 µM (inactive); in the assay on KM12, 30.7 µM (inactive); in the assay on HT-29 it was 28.4 µM (inactive); with MDA-MB-435, 32.9 µM (inactive). The GI50 with SNB-19 is 84.3 µM (inactive); in the assay on U-251, 26.5 µM (inactive); with NCI-H23, 25.4 µM (inactive); with A498, > 100 µM (inactive); in the assay on LOX IMVI it was 17.6 µM (inactive); in the assay with ACHN it was 23.2 µM (inactive). The GI50 with CAKI-1 is 10.9 µM (inactive).
For `C=CCSC1=N/C(=C\c2cccs2)C(=O)N1CC=C`, the GI50 is 33.7 µM (inactive) with A549; 53.1 µM (inactive) in the assay with SN12C; > 100 µM (inactive) in the assay on IGROV-1; > 100 µM (inactive) in the assay with SK-MEL-2; 54.5 µM (inactive) in the assay with M14; > 100 µM (inactive) with Malme-3M. In addition, the GI50 is 75.2 µM (inactive) in the assay on NCI/ADR-RES; > 100 µM (inactive) in the assay on OVCAR-5; 40 µM (inactive) in the assay with KM12; 32.8 µM (inactive) in the assay with HT-29; 60.3 µM (inactive) in the assay with MDA-MB-435; > 100 µM (inactive) in the assay on SNB-19. Besides, the GI50 in the assay on U-251 was 61.5 µM (inactive); with NCI-H23 it was 94.8 µM (inactive); with A498, 26.4 µM (inactive); in the assay with LOX IMVI, 46.1 µM (inactive); in the assay with ACHN it was 54.6 µM (inactive); in the assay on CAKI-1, > 100 µM (inactive).
With `CCCC(=O)OCC1OC(n2cc(F)c(=O)[nH]c2=O)CC1OC(=O)CCC` (stereo not given), the GI50 in the assay with A549 is 0.0578 µM (active); in the assay with SN12C, 0.346 µM (active); in the assay on IGROV-1, > 10 µM (inactive); in the assay with SK-MEL-2, > 10 µM (inactive); in the assay on M14 it was 0.312 µM (active); with Malme-3M it was > 6.43 µM (inactive). The GI50 was 1.55 µM (inactive) in the assay on NCI/ADR-RES; > 10 µM (inactive) in the assay with OVCAR-5; > 5.02 µM (inactive) with KM12; 3.95 µM (inactive) in the assay with MDA-MB-435; 3.26 µM (inactive) with U-251; 0.0295 µM (active) with CCRF-CEM. Also, the GI50 in the assay on NCI-H23 was 0.278 µM (active); in the assay with A498, 0.484 µM (active); in the assay with LOX IMVI, 0.0236 µM (active); in the assay with ACHN, 0.0441 µM (active); in the assay with CAKI-1, 0.183 µM (active).
Regarding `CC[C@H]1C=CCC[C@@]2(C[C@@H]3CC[C@@H]4[C@H](C(=O)OCCCCCCCCCCCCCCCC(=O)N(CCCN)C[C@@H](O)CCN)[C@]5(CCC[C@@H](C)O5)NC(=[N+]34)N2)O1`, the GI50 with A549 was 0.282 µM (active); in the assay with SN12C, 0.766 µM (active); with IGROV-1, 0.239 µM (active); in the assay with SK-MEL-2, 0.229 µM (active); in the assay on M14, 0.0249 µM (active); in the assay on Malme-3M it was 0.245 µM (active). Moreover, the GI50 is 0.733 µM (active) in the assay on NCI/ADR-RES; 0.083 µM (active) in the assay with OVCAR-5; 0.447 µM (active) in the assay with KM12; 0.299 µM (active) in the assay with HT-29; 0.0524 µM (active) in the assay on MDA-MB-435; 0.0822 µM (active) in the assay with SNB-19. The GI50 in the assay with U-251 is 0.381 µM (active); in the assay with NCI-H23, 0.92 µM (active); in the assay on A498 it was 0.625 µM (active); in the assay with LOX IMVI it was 0.248 µM (active); with ACHN, 0.349 µM (active); with CAKI-1 it was 0.0528 µM (active).
Consider `CCN(CC)C(=S)N/N=C/c1cc(OC)ccc1O`, for which the GI50 with A549 is 4.17 µM (inactive); in the assay with SN12C it was 5.79 µM (inactive); in the assay with IGROV-1, 6.37 µM (inactive); in the assay on SK-MEL-2 it was 74.1 µM (inactive); in the assay with M14 it was 3.69 µM (inactive); in the assay with Malme-3M it was 4.23 µM (inactive). Further, the GI50 with NCI/ADR-RES is 2.58 µM (inactive); with OVCAR-5, 57.5 µM (inactive); with SNB-75 it was 19.4 µM (inactive); in the assay with KM12 it was 1.7 µM (inactive); with HT-29, 7 µM (inactive); in the assay on MDA-MB-435, 6.18 µM (inactive). For the same molecule, the GI50 with SNB-19 was 8.91 µM (inactive); with U-251, 3.61 µM (inactive); in the assay on CCRF-CEM it was 0.895 µM (active); with NCI-H23, 7.98 µM (inactive); with A498, 2.02 µM (inactive); in the assay on LOX IMVI, 2.32 µM (inactive). In addition, in the assay on ACHN, the GI50 is 2.98 µM (inactive).
Take `Cc1ccc2oc3c(c(Br)c(Br)n3C)c(=O)c2c1`: the GI50 was 20.5 µM (inactive) in the assay on A549; 18.3 µM (inactive) with SN12C; 10.5 µM (inactive) with IGROV-1; 25.8 µM (inactive) with SK-MEL-2; 31.3 µM (inactive) in the assay with M14; 24.7 µM (inactive) in the assay on Malme-3M. The GI50 is 20.4 µM (inactive) with NCI/ADR-RES; 41.6 µM (inactive) in the assay with OVCAR-5; > 100 µM (inactive) in the assay on KM12; 91.8 µM (inactive) in the assay with HT-29; > 100 µM (inactive) in the assay with MDA-MB-435; 17.8 µM (inactive) in the assay with SNB-19. Further, the GI50 in the assay on U-251 is 18.2 µM (inactive); in the assay on CCRF-CEM it was > 100 µM (inactive); with NCI-H23, 19.5 µM (inactive); in the assay on A498 it was 20.9 µM (inactive); in the assay on LOX IMVI, 31.3 µM (inactive); in the assay with ACHN, 16.7 µM (inactive). In the assay on CAKI-1, the GI50 is 28.4 µM (inactive).
`COC(C)(C)/C=C/c1[nH]c2ccccc2c1CC(=O)NCCc1cn(C(c2ccccc2)(c2ccccc2)c2ccccc2)cn1`: the GI50 with A549 is 3.71 µM (inactive); in the assay on SN12C, 3.41 µM (inactive); in the assay on IGROV-1 it was 5.4 µM (inactive); with SK-MEL-2, 2.64 µM (inactive); in the assay with M14 it was 4.53 µM (inactive); in the assay with Malme-3M it was 3.76 µM (inactive). Also, the GI50 was 5.12 µM (inactive) in the assay with NCI/ADR-RES; 3.66 µM (inactive) in the assay with OVCAR-5; 4.22 µM (inactive) with KM12; 2.71 µM (inactive) in the assay on HT-29; 3.62 µM (inactive) in the assay on MDA-MB-435; 7.5 µM (inactive) in the assay with SNB-19. In addition, the GI50 is 4.45 µM (inactive) in the assay on U-251; 3.68 µM (inactive) in the assay on CCRF-CEM; 4.41 µM (inactive) in the assay on NCI-H23; 3.25 µM (inactive) with A498; 4.82 µM (inactive) in the assay with LOX IMVI; 4.53 µM (inactive) in the assay on ACHN. Besides, the GI50 in the assay with CAKI-1 is 15.9 µM (inactive).
Turning to `CCN(CC)c1ccc(/C=c2\nc(-c3ccccc3)n3c2nc2ccccc23)cc1`, the GI50 in the assay on A549 was 6.21 µM (inactive); in the assay on SN12C it was 16.8 µM (inactive); in the assay on IGROV-1 it was 7.82 µM (inactive); with SK-MEL-2, 15.4 µM (inactive); in the assay on M14, 7.46 µM (inactive); in the assay with Malme-3M, 13 µM (inactive). In addition, the GI50 is 3.98 µM (inactive) with NCI/ADR-RES; 77.3 µM (inactive) in the assay on OVCAR-5; 6.47 µM (inactive) in the assay on KM12; 1.89 µM (inactive) with HT-29; 8.71 µM (inactive) with MDA-MB-435; 83.8 µM (inactive) with SNB-19. Besides, the GI50 in the assay with U-251 is 2.1 µM (inactive); in the assay with CCRF-CEM, 0.544 µM (active); with NCI-H23, 20 µM (inactive); in the assay on A498 it was 64.4 µM (inactive); with LOX IMVI, 2.04 µM (inactive); in the assay on ACHN, 15 µM (inactive). Moreover, the GI50 with CAKI-1 is 0.885 µM (active).
In the case of `CCn1cc(C(=O)O)c(=O)c2ccc(C)nc21` [NALIDIXIC ACID], the GI50 in the assay on A549, in the assay with SN12C, in the assay on IGROV-1, with SK-MEL-2, with M14 and with Malme-3M was > 100 µM (inactive) throughout. Besides, the GI50 was > 100 µM (inactive) in the assay on NCI/ADR-RES; > 100 µM (inactive) in the assay on OVCAR-5; 97.3 µM (inactive) in the assay on SNB-75; > 100 µM (inactive) in the assay on KM12; > 100 µM (inactive) in the assay with HT-29; > 100 µM (inactive) with MDA-MB-435. For the same molecule, the GI50 with SNB-19, with U-251, in the assay with CCRF-CEM, with NCI-H23, in the assay on LOX IMVI and in the assay with ACHN was > 100 µM (inactive) throughout. For the same molecule, the GI50 with CAKI-1 was > 100 µM (inactive).
